Where two headings read alike, the source gives them in different places.
Experiments:
Format in all cases: cell-based
CXCR2 receptor = CXCR2 receptor (Homo sapiens (Human), UniProt P25025); assay: β-arrestin recruitment test, PathHunter HEK293-CXCR2 cells stimulated with CXCL8; conditions: CXCL8 10 nM
Experimental: (§1) The in vitro affinity of the compounds of the present invention for the CXCR1 and CXCR2 receptors is determined on a functional test of β-arrestin recruitment type after activation of the receptor.
(§2) To evaluate the direct interaction of the CXCR2 or CXCR1 receptor with β-arrestin 2, a test of β-arrestin 2 recruitment for CXCR2 or CXCR1 based on complementation of the β-galactosidase enzyme (Olson K. R., Eglen R. M., Beta-galactosidase complementation: a cell-based luminescent assay platform for drug discovery. Assay Drug Dev. Technol. 2007 February; 5(1); 137-44), as established by DiscoveRx Corporation was used. Stimulation of these two cell lines with CXCL8 (10 nM) induces the recruitment of β-arrestin 2, as indicated by a significant increase in the induction factor. All the CXCR2 antagonists are tested in a dose-dependent manner and the concentration corresponding to 50% inhibition of the response is determined (IC50=concentration of half-inhibition).
(§3) β-Arrestin Recruitment Test: “PathHunter HEK293-CXCR2” or “U20S hCXCR1 β-arrestin” cells (DiscoveRx Corporation) were seeded overnight at 10 000 cells/well (384-well format) in 20 μl of Opti MEM I medium. Preincubation with the antagonist or the vehicle for 30 minutes at 37° C. and 5% CO2 was followed by 60 minutes of stimulation with CXCL8 at 37° C. and 5% CO2. The cells were then placed at room temperature for 30 minutes. The PathHunter detection reagent (DiscoveRx Corporation) was added. After incubation for 60 minutes at room temperature, the β-galactosidase induced by the luminescence during the β-arrestin-CXCR2 interaction was measured for 0.3 s in an Envision 2102 Multilabel Reader (PerkinElmer Life and Analytical Sciences). The data are analysed via a non-linear curve procedure using the XLFit4 (IDBS) exploitation software, and the IC50 values are determined.

CXCR1 receptor = CXCR1 receptor (Homo sapiens (Human), UniProt P25024); assay: β-arrestin recruitment test, U2OS hCXCR1 β-arrestin cells stimulated with CXCL8; conditions: CXCL8 10 nM
Experimental: as §1, §2, §3

human neutrophils = assay: Neutrophil migration (chemotaxis assay, Transwell, IL-8); conditions: 10 nM IL-8, 1 hour incubation
Experimental: Purification and culturing of human neutrophils Peripheral blood preparations (18-24 hours) are collected in duly registered clinics or clinical laboratories from healthy volunteers who consented to the re-use of their blood for scientific research (Supplier: Biopredic International). The neutrophils are separated from the whole blood via a positive selection (Whole Blood CD15 MicroBeads: MiltenyiBiotech, Reference: 130-091-058). The cells are resuspended at a rate of 4×10^6 cells per mL in RPMI 1640 culture medium (Invitrogen) supplemented with filtered and heat-inactivated 5% foetal calf serum (FCS) (Invitrogen).
The experiments were performed in “HTS Transwell 96 Well Permeable Supports 3-μm pore size” filter plates (Corning, Reference: 3386). The response doses of CXCRS antagonists are applied in the lower compartments of the plates in the presence of 10 nM of IL-8 (1-72 aa, R&D Systems, Cat. No. IL-208). The neutrophils are then seeded in the upper compartment (2×10^5 cells/well). After 1 hour of incubation at 37° C. and 5% CO2, the number of viable cells that have crossed the membrane and are in the lower compartment is determined via a colorimetric method (CellTiter 96® AQueous One Solution Cell Proliferation Assay—PROMEGA Cat # G3581). Each treatment condition is evaluated in duplicate. The IC50 values are calculated with the XLFit4 software.

[1] = Homo sapiens, Neutrophil, class symbols, read-out: Migration of human neutrophils IC50
[2] = Homo sapiens, Neutrophil, read-out: Migration of h neutrophils IC50

Chain of CXCR1 receptor (P25024 whole entry): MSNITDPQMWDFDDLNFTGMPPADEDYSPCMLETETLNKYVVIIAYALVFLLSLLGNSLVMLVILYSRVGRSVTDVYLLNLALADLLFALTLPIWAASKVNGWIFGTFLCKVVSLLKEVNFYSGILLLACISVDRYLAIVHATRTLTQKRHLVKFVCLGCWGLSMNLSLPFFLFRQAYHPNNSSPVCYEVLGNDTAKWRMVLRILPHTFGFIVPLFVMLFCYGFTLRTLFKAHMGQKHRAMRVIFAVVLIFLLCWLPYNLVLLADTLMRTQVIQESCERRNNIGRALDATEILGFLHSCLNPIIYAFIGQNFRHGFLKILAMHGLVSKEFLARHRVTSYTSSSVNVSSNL
Chain of CXCR2 receptor (P25025 whole entry): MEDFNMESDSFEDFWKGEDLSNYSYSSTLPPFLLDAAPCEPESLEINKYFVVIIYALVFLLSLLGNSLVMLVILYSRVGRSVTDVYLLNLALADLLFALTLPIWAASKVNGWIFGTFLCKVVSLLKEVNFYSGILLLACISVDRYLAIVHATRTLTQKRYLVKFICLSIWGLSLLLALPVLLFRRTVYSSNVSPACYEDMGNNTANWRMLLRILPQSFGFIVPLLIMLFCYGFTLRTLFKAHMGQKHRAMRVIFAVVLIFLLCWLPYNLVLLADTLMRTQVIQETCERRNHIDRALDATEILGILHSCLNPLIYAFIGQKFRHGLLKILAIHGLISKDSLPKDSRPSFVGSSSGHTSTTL

Row | SMILES | IC50 (CXCR2 receptor; class symbols) [nM] | IC50 (CXCR1 receptor; class symbols) [nM] | IC50 (CXCR2 receptor) [nM] | IC50 (CXCR1 receptor) [nM] | IC50 (human neutrophils; [1]) [nM] | IC50 (human neutrophils; [2]) [nM] | IC50 (human neutrophils; class symbols, read-out: Migration of human neutrophils IC50) [nM]
1 | CC[C@@H](Nc1c(Nc2ccc(Cl)c(S(C)(=O)=NC)c2O)c(=O)c1=O)c1ccc(C)o1 (single isomer, unassigned; (+)) [Example 20] | < 20 | < 200 |  |  | < 300 |  | 
2 | CC[C@@H](Nc1c(Nc2ccc(Cl)c(S(C)(=N)=O)c2O)c(=O)c1=O)c1ccc(C)o1 (stereo partly drawn) [Example 1, 3-(4-Chloro-2-hydroxy-3-methanesulfoximinophenylamino)-4-[(R)-1-(5-methylfuran-2-yl)propylamino]cyclobut-3-ene-1,2-dione] | < 20 | < 200 |  |  | < 300 |  | 
3 | CC[C@@H](Nc1c(Nc2ccc(Cl)c(S(C)(=O)=NC)c2O)c(=O)c1=O)c1ccc(C)o1 (stereo partly drawn) [Example 2, 3-{4-Chloro-2-hydroxy-3-methane[(N-methyl)sulfoximino]phenylamino}-4-[(R)-1-(5-methylfuran-2-yl)propylamino]cyclobut-3-ene-1,2-dione] |  |  |  |  |  |  | < 300
4 | CC[C@@H](Nc1c(Nc2ccc(Cl)c(S(C)(=O)=Nc3ccncc3)c2O)c(=O)c1=O)c1ccc(C)o1 (stereo partly drawn) [Example 3, 3-{4-Chloro-2-hydroxy-3-methane[(N-pyridin-4-yl)sulfoximino]phenylamino}-4-[(R)-1-(5-methylfuran-2-yl)propylamino]cyclobut-3-ene-1,2-dione] | ≥ 20 | ≥ 200 |  |  |  |  | 
5 | CCC(CC)Nc1c(Nc2ccc(Cl)c(S(C)(=O)=Nc3ccncc3)c2O)c(=O)c1=O (stereo not shown) [Example 4, 3-{4-Chloro-2-hydroxy-3-methane[(N-pyridin-4-yl)sulfoximino]phenylamino}-4-(1-ethylpropylamino)cyclobut-3-ene-1,2-dione] | ≥ 20 | ≥ 200 |  |  |  |  | 
6 | CN=S(C)(=O)c1c(Cl)ccc(Nc2c(N[C@@H](c3ccc(C)o3)[C@H]3CCCS3)c(=O)c2=O)c1O (stereo partly drawn) [Example 5, 3-{4-Chloro-2-hydroxy-3-methane[(N-methyl)sulfoximino]phenylamino}-4-{[(S)-(5-methylfuran-2-yl)-(R)-tetrahydrothiophen-2-ylmethyl]amino}cyclobut-3-ene-1,2-dione] | ≥ 20 | < 200 |  |  | < 300 |  | 
7 | CS(=N)(=O)c1c(Cl)ccc(NC(=O)Nc2cccc(F)c2Cl)c1O (stereo not shown) [Example 6, 1-(2-Chloro-3-fluorophenyl)-3-(4-chloro-2-hydroxy-3-methanesulfoximinephenyl)-urea] | ≥ 20 | ≥ 200 |  |  |  |  | 
8 | CN=S(C)(=O)c1c(Cl)ccc(NC(=O)Nc2cccc(F)c2Cl)c1O (stereo not shown) [Example 7, 1-(2-Chloro-3-fluorophenyl)-3-{4-chloro-2-hydroxy-3-methane[(N-methyl)sulfoximino]phenyl}urea] | ≥ 20 | ≥ 200 |  |  |  |  | 
9 | CCC(CC)Nc1c(Nc2ccc(Cl)c(S(C)(=O)=NCCN(C)C)c2O)c(=O)c1=O (stereo not shown) [Example 10, 3-[4-Chloro-3-[N-(2-dimethylaminoethyl)-S-methylsulfonimidoyl]-2-hydroxyanilino]-4-(1-ethylpropylamino)cyclobut-3-ene-1,2-dione] | ≥ 20 | ≥ 200 |  |  |  |  | 
10 | CC[C@@H](Nc1c(Nc2ccc(Cl)c(S(C)(=O)=NCCOC)c2O)c(=O)c1=O)c1ccc(C)o1 (stereo partly drawn) [Example 11, 3-[4-Chloro-2-hydroxy-3-[N-(2-methoxyethyl)-S-methylsulfonimidoyl]anilino]-4-[[(1R)-1-(5-methyl-2-furyl)propyl]amino]cyclobut-3-ene-1,2-dione] | ≥ 20 | ≥ 200 |  |  |  |  | 

The remaining lines, values ahead:

Row | IC50 (CXCR2 receptor; class symbols) [nM] | IC50 (CXCR1 receptor; class symbols) [nM] | IC50 (CXCR2 receptor) [nM] | IC50 (CXCR1 receptor) [nM] | IC50 (human neutrophils; [1]) [nM] | IC50 (human neutrophils; [2]) [nM] | IC50 (human neutrophils; class symbols, read-out: Migration of human neutrophils IC50) [nM] | SMILES
11 | ≥ 20 | ≥ 200 |  |  |  |  |  | CC[C@@H](Nc1c(Nc2ccc(Cl)c(S(C)(=O)=NC)c2O)c(=O)c1=O)c1ccccn1 (single isomer, unassigned; (+)) [Example 13]
12 | < 20 |  | 18 | 36 | ≥ 300 | 356 |  | CC[C@@H](Nc1c(Nc2cccc(S(C)(=O)=NC)c2O)c(=O)c1=O)c1ccc(C)o1 (single isomer, unassigned; (+)) [Example 16]
13 |  | ≥ 200 |  |  |  |  |  | CC[C@@H](Nc1c(Nc2cccc(S(C)(=O)=NC)c2O)c(=O)c1=O)c1ccc(C)o1 (single isomer, unassigned; (+)) [Example 17]
14 | < 20 | < 200 | 16 | 28 | < 300 | 82 |  | CC[C@@H](Nc1c(Nc2ccc(Cl)c(S(C)(=O)=NC)c2O)c(=O)c1=O)c1ccccn1 (single isomer, unassigned; (-)) [Example 12]
15 | ≥ 20 | < 200 |  |  | ≥ 300 |  |  | CC[C@@H](Nc1c(Nc2cccc(S(C)(=O)=NC)c2O)c(=O)c1=O)c1ccccn1 (single isomer, unassigned; (-)) [Example 14]
16 |  | ≥ 200 |  |  |  |  |  | CC[C@@H](Nc1c(Nc2cccc(S(C)(=O)=NC)c2O)c(=O)c1=O)c1ccccn1 (single isomer, unassigned; (-)) [Example 15]
17 | ≥ 20 | ≥ 200 |  |  | ≥ 300 |  |  | CCC(CC)Nc1c(Nc2cccc(S(C)(=O)=NC)c2O)c(=O)c1=O (single isomer, unassigned; (-)) [Example 18]
18 | ≥ 20 | < 200 |  |  | ≥ 300 |  |  | CC[C@@H](Nc1c(Nc2cccc(S(C)(=O)=NC)c2O)c(=O)c1=O)c1ccc(C)o1 (stereo partly drawn) [Example 8, 3-{2-Hydroxy-3-methane[(N-methyl)sulfoximino]phenylamino}-4-[(R)-1-(5-methylfuran-2-yl)propylamino]cyclobut-3-ene-1,2-dione]

Source: US10647706B2, “Chemokine CXCR1 and CXCR2 receptor antagonist compounds, and use thereof in the treatment of chemokine-mediated pathologies” (GALDERMA RESEARCH & DEVELOPMENT, priority 2014, dated 2020)
